Reference: the NIST ThermoML archive (doi:10.1021/je100765j)
± gives the expanded uncertainty stated by the source.

Experiments:
[1] = 101.33 kPa, Liquid; for speed of sound: Sing-around technique in a fixed-path interferometer; for mass density: Vibrating tube method
[2] = refractive index (Na D-line) (dimensionless); settings: 101.33 kPa, Liquid, Standard Abbe refractometry

CC(C)CCl [1-chloro-2-methylpropane]
Settings	mass density, [1] [kg/m3]	refractive index, [2]	speed of sound, [1] [m/s]
283.15 K	888.845 ± 0.23	1.40354 ± 0.00037	1141.7 ± 1.2
288.15 K	883.211 ± 0.23	1.4008 ± 0.00037	1120.7 ± 1.2
293.15 K	877.539 ± 0.23	1.39802 ± 0.00037	1099.6 ± 1.2
298.15 K	871.833 ± 0.23	1.39529 ± 0.00037	1078.7 ± 1.1
303.15 K	866.096 ± 0.23	1.39245 ± 0.00037	1057.8 ± 1.1
308.15 K	860.319 ± 0.23	1.38963 ± 0.00037	1037 ± 1.1
313.15 K	854.502 ± 0.23	1.38683 ± 0.00037	1016.3 ± 1.1

CCCCCl [1-chlorobutane]
Settings	mass density, [1] [kg/m3]	refractive index, [2]	speed of sound, [1] [m/s]
283.15 K	897.339 ± 0.23	1.4075 ± 0.00037	1180.1 ± 1.2
288.15 K	891.855 ± 0.23	1.40481 ± 0.00037	1159.5 ± 1.2
293.15 K	886.335 ± 0.23	1.40212 ± 0.00037	1138.8 ± 1.2
298.15 K	880.705 ± 0.23	1.3995 ± 0.00037	1118.2 ± 1.2
303.15 K	875.204 ± 0.23	1.39672 ± 0.00037	1097.6 ± 1.2
308.15 K	869.585 ± 0.23	1.39395 ± 0.00037	1077.2 ± 1.1
313.15 K	863.882 ± 0.23	1.39131 ± 0.00037	1056.9 ± 1.1

CC(C)(C)Cl [2-chloro-2-methylpropane]
Settings	mass density, [1] [kg/m3]	refractive index, [2]	speed of sound, [1] [m/s]
283.15 K	855.249 ± 0.23	1.39115 ± 0.00037	1046.9 ± 1.1
288.15 K	849.243 ± 0.23	1.38821 ± 0.00037	1025.5 ± 1.1
293.15 K	843.191 ± 0.23	1.38522 ± 0.00037	1004.1 ± 1.1
298.15 K	837.096 ± 0.23	1.38225 ± 0.00037	983.25 ± 1.1
303.15 K	830.958 ± 0.23	1.37921 ± 0.00037	961.51 ± 1.1
308.15 K	824.772 ± 0.23	1.37619 ± 0.00037	940.46 ± 1.1
313.15 K	818.536 ± 0.24	1.37312 ± 0.00037	919.41 ± 1.1

CCC(C)Cl (stereo not given) [2-chlorobutane]
Settings	mass density, [1] [kg/m3]	refractive index, [2]	speed of sound, [1] [m/s]
283.15 K	884.34 ± 0.23	1.40226 ± 0.00037	1127.7 ± 1.2
288.15 K	878.756 ± 0.23	1.39953 ± 0.00037	1107.2 ± 1.2
293.15 K	873.13 ± 0.23	1.3968 ± 0.00037	1086.7 ± 1.1
298.15 K	867.474 ± 0.23	1.39404 ± 0.00037	1066.2 ± 1.1
303.15 K	861.779 ± 0.23	1.39125 ± 0.00037	1045.9 ± 1.1
308.15 K	856.044 ± 0.23	1.38844 ± 0.00037	1025.3 ± 1.1
313.15 K	850.266 ± 0.23	1.38562 ± 0.00037	1005.3 ± 1.1

CC(C)OC(C)C [diisopropyl ether]
Settings	mass density, [1] [kg/m3]	refractive index, [2]	speed of sound, [1] [m/s]
283.15 K	733.833 ± 0.24	1.37358 ± 0.00037	1065.5 ± 1.1
288.15 K	728.692 ± 0.24	1.37084 ± 0.00037	1043.1 ± 1.1
293.15 K	723.509 ± 0.24	1.36812 ± 0.00037	1020.6 ± 1.1
298.15 K	718.289 ± 0.24	1.36525 ± 0.00037	998.27 ± 1.1
303.15 K	713.032 ± 0.25	1.36242 ± 0.00037	976.02 ± 1.1
308.15 K	707.727 ± 0.25	1.35956 ± 0.00037	953.94 ± 1.1
313.15 K	702.378 ± 0.25	1.35667 ± 0.00037	932.01 ± 1.1
